Assay results reported in ChEMBL document CHEMBL4138114, “Pharmacophore guided discovery of small-molecule interleukin 15 inhibitors” (Eur J Med Chem, 2017).
Activity calls are given as the source filed them. No cut-off for these calls is given here.

Legend:
Type in all cases: cell-based
PBMC = experiment: Cytotoxicity against human PBMC cells up to 200 uM after 48 hrs by CellTiter 96 AQueous one solution cell proliferation assay
[1] = target: T1, IL15-IL15 receptor (Homo sapiens) (UniProt P40933+Q13261); experiment: Inhibition of IL-15 (unknown origin)/IL-15Ralpha interaction in human PBMC cells assessed as reduction of IL-17 synthesis preincubated for 30 mins followed by IL-15 addition measured after 48 hrs by ELISA
[2] = target: T1, IL15-IL15 receptor (Homo sapiens); experiment: Inhibition of IL-15 (unknown origin)/IL-15Ralpha interaction in human PBMC cells assessed as reduction of TNF-alpha synthesis preincubated for 30 mins followed by IL-15 addition measured after 48 hrs by ELISA

T1 sequence (P40933 49-162 limits assumed): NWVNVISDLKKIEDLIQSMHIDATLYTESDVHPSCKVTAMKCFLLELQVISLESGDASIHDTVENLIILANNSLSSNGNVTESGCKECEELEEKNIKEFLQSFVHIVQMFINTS
T1 sequence (Q13261 31-267 partner limits assumed): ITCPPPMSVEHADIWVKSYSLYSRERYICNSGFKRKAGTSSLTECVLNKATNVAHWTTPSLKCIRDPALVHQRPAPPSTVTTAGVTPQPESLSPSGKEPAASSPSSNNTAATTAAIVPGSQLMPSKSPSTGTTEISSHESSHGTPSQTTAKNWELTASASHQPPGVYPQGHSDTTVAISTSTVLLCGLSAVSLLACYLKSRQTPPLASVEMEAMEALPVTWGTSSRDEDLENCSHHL

Row | Structure (SMILES) | Activity (PBMC) | inhibition [1] | TNF-alpha synthesis inhibition (active/not active) [2]
1 | COc1ccc(-n2nnnc2S(=O)(=O)Cc2ccc(C(=O)O)cc2)cc1 | Non-Toxic | inactive | inactive
2 | O=C(O)c1ccc(CSc2nnnn2C2CCCCC2)cc1 | Non-Toxic | inactive | inactive
3 | NCCC(=O)N[C@@H](Cc1cnc[nH]1)C(=O)O [CARNOSINE] | Non-Toxic |  | 
4 | O=C(O)CCC(=O)NCc1ccc(C(=O)O)cc1 | Non-Toxic | inactive | inactive
5 | NCCC(=O)NCCc1c[nH]cn1 [CARCININE] | Non-Toxic | Active | Active
6 | COc1ccc(S(=O)(=O)Nc2cccc(C(=O)O)c2)cc1C(=O)O | Non-Toxic | inactive | inactive
7 | NCCC(=O)N[C@@H](Cc1c[nH]cn1)C(=O)O |  | inactive | inactive
8 | O=C(O)CCC(=O)Nc1cc(NC(=O)CCC(=O)O)cc(C(=O)O)c1 | Non-Toxic | Active | Active
9 | O=C(O)c1ccc(CNC(=O)C2CC=CCC2C(=O)O)cc1 (configuration not stated) | Non-Toxic | inactive | inactive
10 | COC(=O)c1ccc(O)c(C)c1O | Non-Toxic | Active | Active
11 | NC(CCCCCCC(N)C(=O)O)C(=O)O (configuration not stated) | Non-Toxic | Active | Active
12 | COC(=O)CCC(=O)NCc1ccc(C(=O)OC)cc1 | Non-Toxic | Active | Active
13 | Cc1nnc(SCC2=C(C(=O)O)N3C(=O)[C@@H](NC(=O)Cn4cnnn4)[C@H]3SC2)s1 [CEFAZOLIN] | Non-Toxic | Active | Active
14 | O=C(O)c1ccc(CNC(=O)C2CCCCC2C(=O)O)cc1 (configuration not stated) | Non-Toxic | Active | Active
15 | NC(N)=NC(=O)CNCC(=O)N=C(N)N | Non-Toxic | Active | Active
16 | O=C(O)c1ccc(CSc2nnnn2-c2ccc(F)cc2)cc1 | Non-Toxic | Active | Active
17 | C/C(C/C(C)=N/N=C(N)N)=N\N=C(N)N | Non-Toxic | Active | Active
18 | O=C(O)c1ccc(CNC(=O)C2C3CCC(C3)C2C(=O)O)cc1 (configuration not stated) | Non-Toxic | Active | Active
19 | CCC(=O)Nc1ccc(Cc2ccc(NC(=O)CC)c(C(=O)O)c2)cc1C(=O)O | Non-Toxic | inactive | inactive
20 | O=C(O)Cc1ccc(NC(=O)C2CC=CCC2C(=O)O)cc1 (configuration not stated) | Non-Toxic | inactive | inactive
